The assay deals with TNF production or secretion in mouse peritoneal macrophages. Kind of assay: Inhibitory effect on TNF production or secretion in mouse peritoneal macrophages (30 μM). It counts as cell-based, mouse (BALB/c). The following applies: Mus musculus; 30 μM compound; LPS 10 μg/ml, 18 hours; TNF by L929 bioassay. On the procedure:
Inhibitory effect on TNF production or secretion in mouse peritoneal macrophages (In case drug concentration is 30 μM)
BALB/c mice (5 weeks old, female, Charles River Japan) were intraperitoneally injected with 1 ml of 3% thioglycollate broth. After 4 days, the mice were sacrificed. Peritoneal exudated cells (PECs) were collected from the peritoneal cavity by washing with minimum essential medium (hereinafter abbreviated as MEM, manufactured by Handai Biseibutubyo Kenkyukai, Osaka, Japan) containing 5 U/ml heparin and 1% fetal bovine serum (FBS, manufactured by GIBCO Laboratories Inc.). PECs were washed three times with MEM, suspended with MEM containing 10% FBS. After the viable cells were counted by exclusion of trypan blue dye, the suspension was adjusted at the final concentration of 2×10^6 cells/ml with MEM containing 10% FBS and seeded into a 96-well microplate (Costar, Cambridge, Mass., USA) at 2×10^5 cells/100 μl/well. The PECs were incubated for an hour at 37° C. in a humidified 5% CO2 incubator, and were washed twice with MEM warmed at 37° C. to remove non-adherent cells. Residual adherent cells were used as peritoneal macrophages. After the washing above, 50 μl each/well of MEM containing 10% FBS was added to each well and provided for use in the following experiment.
The powdery compound of the present invention was dissolved in dimethylsulfoxide in a concentration of 30 mM. The solution was then diluted with MEM containing 10% FBS in the final concentration of 30 μM. In the peritoneal macrophages obtained above, 50 μl each of the dilution was added to each well to make the total volume 100 μl. Thereafter 100 μl each of lipopolysaccharide (hereinafter abbreviated as LPS, E. coli 0111B4, manufactured by DIFCO, USA) was added to each well in the final concentration of 10 μg/ml. After the cells were incubated at 37° C. for 18 hours in a humidified 5% CO2 incubator, 25 μl of the supernatant in each well was collected.
The TNF activity in the supernatant collected was determined by bioassay using TNF-sensitive mouse fibroblast cell line L929 cells. That is, 100 μl each of MEM containing 10% FBS was added to each well of a 96-well microplate; using the resulting mixture, 25 μl of the collected supernatant was diluted to 5-fold dilution to final concentrations (concentrations after the following addition of L929 cell suspension) of 10%, 2%, 0.4% and 0.08%.
L929 cells were then suspended (4×10^5 cells/ml) in MEM containing 10% FBS and 1 μg/ml actinomycin D (Sigma Co.) and 100 μl each of the suspension was added to each well of the above microplate at 4×10^4 cells/well and cultured at 37° C. in a humidified 50% CO2. The viable cells were counted by partial modification of the MTT method reported in Monosann et al., T., J. Immunol. Method, 65, 55-63, 1983. The modified MTT method comprises the following steps. One mg/ml of 3-(4,5-dimethylthiazol-2-yl)-2,5-diphenyltetrazolium bromide (hereinafter abbreviated as MTT, manufactured by Sigma Co.) was dissolved in MEM, and 50 μl each of the solution was added to each well of the microplate above. After incubating the microplate for further 6 hours, the supernatant was discarded and 100 μl of 0.004N HCl-isopropyl alcohol and then 10 μl of 0.01% sodium laurylsulfate aqueous solution was added to each well. After shaking the 96-well microplate for a few minutes, the absorbance in each well was measured with a microplate reader (Corona Co.) at an absorption wavelength of 550 nm. The absorbance correlated to the count of the viable L929 cells and represented the TNF activity in the supernatant. The TNF activity was determined in terms of unit (U)/ml from the calibration curve of absorbance for the TNF activity obtained using mouse recombinant TNF α (TNF-M, manufactured by Genzyme Co.) as a standard. The activity of inhibiting TNF production of each compound, was determined by the following equation.
Inhibition of TNF production or secretion (%)=(1-TNF activity in the […]

Data on 35 compounds can be found in patent US5648359A, “Tumor necrosis factor production inhibitors” (Sumitomo Pharmaceuticals Company, Limited, priority 1993, dated 1997).

SMILES strings stand for the structures. Counter-ions that a name gives are not always drawn.

In general, inhibition refers to the relative decrease from the control value, in per cent. In the case of `CC(=O)N1C2Cc3cc4c(cc3C1Cc1cc3c(cc12)OCO3)OCO4` [Example 1, 15-acetyl-5,6,12,13-tetrahydrocycloocta[1,2-f:5,6-f']bis[1,3]benzodioxol-5,12-imine], the inhibition at 30 µM worked out at 95%.
The same measure for `CCN1C2Cc3cc4c(cc3C1Cc1cc3c(cc12)OCO3)OCO4` [Example 2, 15-ethyl-5,6,12,13-tetrahydrocycloocta[1,2-f:5,6-f']bis[1,3]benzodioxol-5,12-imine hydrochloride]: 72%.
The same measure for `c1coc(CN2C3Cc4cc5c(cc4C2Cc2cc4c(cc23)OCO4)OCO5)c1` [Example 3, 15-furfuryl-5,6,12,13-tetrahydrocycloocta[1,2-f:5,6-f']bis[1,3]benzodioxol-5,12-imine hydrochloride]: -99%; for `Fc1ccc(CCCN2C3Cc4cc5c(cc4C2Cc2cc4c(cc23)OCO4)OCO5)cc1` [Example 4, 15-[3-(4-fluorophenyl)propyl]-5,6,12,13-tetrahydrocycloocta[1,2-f:5,6-f']bis[1,3]benzodioxol-5,12-imine hydrochloride]: 18%.
Consider `CC(=O)N1C2Cc3cc4c(cc3C1Cc1cc3c(cc12)OCCO3)OCCO4` [Example 5, 17-acetyl-6,7,14,15-tetrahydrocycloocta[1,2-g:5,6-g']bis[1,4]benzodioxan-6,14-imine], for which the inhibition at 30 µM is 64%.
The same measure for `c1c2c(cc3c1OCO3)C1Cc3cc4c(cc3C(C2)N1)OCO4` [Example 13, 5,6,12,13-tetrahydrocycloocta-[1,2-f:5,6-f']bis[1,3]benzodioxol-5,12-imine]: 78%.
Under `c1c2c(cc3c1OCCO3)C1Cc3cc4c(cc3C(C2)N1)OCCO4` [Example 14] stands 63%.
Turning to `CCC(=O)N1C2Cc3cc4c(cc3C1Cc1cc3c(cc12)OCO3)OCO4` [Example 17, 5,6,12,13-tetrahydro-15-propionylcycloocta-[1,2-f:5,6-f']bis[1,3]benzodioxol-5,12-imine], the inhibition at 30 µM stood at 94%.
Regarding `CCCC(=O)N1C2Cc3cc4c(cc3C1Cc1cc3c(cc12)OCO3)OCO4` [Example 18], the inhibition at 30 µM came to 86%.
For the compound `COCC(=O)N1C2Cc3cc4c(cc3C1Cc1cc3c(cc12)OCO3)OCO4` [Example 20], the inhibition at 30 µM came out at 92%.
The same measure for `CCOC(=O)C(=O)N1C2Cc3cc4c(cc3C1Cc1cc3c(cc12)OCO3)OCO4` [Example 21, 15-ethoxalyl-5,6,12,13-tetrahydrocycloocta[1,2-f:5,6-f']bis[1,3]benzodioxol-5,12-imine]: 69%.
The same measure for `CCOC(=O)CC(=O)N1C2Cc3cc4c(cc3C1Cc1cc3c(cc12)OCO3)OCO4` [Example 22, 15-(ethoxycarbonylacetyl)-5,6,12,13-tetrahydrocycloocta[1,2-f:5,6-g']bis[1,3]benzodioxol-5,12-imine]: 77%; for `O=C(c1ccccc1)N1C2Cc3cc4c(cc3C1Cc1cc3c(cc12)OCO3)OCO4` [Example 23]: 39%.
Under `CCOC(=O)N1C2Cc3cc4c(cc3C1Cc1cc3c(cc12)OCO3)OCO4` [Example 24] stands 68%; under `CCCCCOC(=O)N1C2Cc3cc4c(cc3C1Cc1cc3c(cc12)OCO3)OCO4` [Example 25], 46%.
On to `O=C(Oc1ccccc1)N1C2Cc3cc4c(cc3C1Cc1cc3c(cc12)OCO3)OCO4` [Example 26], for which the inhibition at 30 µM was 27%.
As for `CN1C2Cc3cc4c(cc3C1Cc1cc3c(cc12)OCO3)OCO4` [Example 27], the inhibition at 30 µM was 86%.
The same measure for `CC(C)CN1C2Cc3cc4c(cc3C1Cc1cc3c(cc12)OCO3)OCO4` [Example 31]: 36%.
The same measure for `C=CCN1C2Cc3cc4c(cc3C1Cc1cc3c(cc12)OCO3)OCO4` [Example 32]: 12%.
For the compound `C=CCCCN1C2Cc3cc4c(cc3C1Cc1cc3c(cc12)OCO3)OCO4` [Example 33], the inhibition at 30 µM is -5%.
The same measure for `c1c2c(cc3c1OCO3)C1Cc3cc4c(cc3C(C2)N1CCN1CCCCC1)OCO4` [Example 34]: 56%; for `OCCN1C2Cc3cc4c(cc3C1Cc1cc3c(cc12)OCO3)OCO4` [Example 35]: 65%; for `COC(=O)CCN1C2Cc3cc4c(cc3C1Cc1cc3c(cc12)OCO3)OCO4` [Example 36]: -24%.
The same measure for `CCOC(=O)CN1C2Cc3cc4c(cc3C1Cc1cc3c(cc12)OCO3)OCO4` [Example 37]: 19%; for `CCOC(=O)CCN1C2Cc3cc4c(cc3C1Cc1cc3c(cc12)OCO3)OCO4` [Example 38]: 6%.
Under `N#CCCN1C2Cc3cc4c(cc3C1Cc1cc3c(cc12)OCO3)OCO4` [Example 39, 15-(2-cyanoethyl)-5,6,12,13-tetrahydrocycloocta[1,2-f:5,6-f']bis[1,3]benzodioxol-5,12-imine] stands -48%; under `O=CN1C2Cc3cc4c(cc3C1Cc1cc3c(cc12)OCO3)OCO4` [Example 40, 15-formyl-5,6,12,13-tetrahydrocycloocta[1,2-f:5,6-f']bis[1,3]benzodioxol-5,12-imine], 84%; under `COCCN1C2Cc3cc4c(cc3C1Cc1cc3c(cc12)OCO3)OCO4` [Example 42, 5,6,12,13-tetrahydro-15-(2-methoxyethyl)cycloocta[1,2-f:5,6-f']bis[1,3]benzodioxol-5,12-imine], 11%.
Turning to `CNC(=O)N1C2Cc3cc4c(cc3C1Cc1cc3c(cc12)OCO3)OCO4` [Example 44, 5,6,12,13-tetrahydro-15-(N-methylcarbamoyl)cycloocta[1,2-f:5,6-f']bis[1,3]benzodioxol-5,12-imine], the inhibition at 30 µM was found to be 90%.
Under `O=C(O)CC(=O)N1C2Cc3cc4c(cc3C1Cc1cc3c(cc12)OCO3)OCO4` [Example 45, 15-(carboxyacetyl)-5,6,12,13-tetrahydrocycloocta[1,2-f:5,6-f']bis[1,3]benzodioxol-5,12-imine] stands 15%.
The same measure for `O=C(O)C(=O)N1C2Cc3cc4c(cc3C1Cc1cc3c(cc12)OCO3)OCO4` [Example 46, 5,6,12,13-tetrahydro-15-oxalocycloocta[1,2-f:5,6-f']bis[1,3]benzodioxol-5,12-imine]: 6%; for `O=C(CCO)N1C2Cc3cc4c(cc3C1Cc1cc3c(cc12)OCO3)OCO4` [Example 47, 5,6,12,13-tetrahydro-15-(3-hydroxypropionyl)cycloocta[1,2-f:5,6-f']bis[1,3]benzodioxol-5,12-imine]: 83%; for `O=C(CO)N1C2Cc3cc4c(cc3C1Cc1cc3c(cc12)OCO3)OCO4` [Example 48, 15-glycoloyl-5,6,12,13-tetrahydrocycloocta[1,2-f:5,6-f']bis-[1,3]benzodioxol-5,12-imine]: 85%.
As to `NCCN1C2Cc3cc4c(cc3C1Cc1cc3c(cc12)OCO3)OCO4` [Example 50, 15-(2-aminoethyl)-5,6,12,13-tetrahydrocycloocta[1,2-f:5,6-f']bis[1,3]benzodioxol-5,12-imine], the inhibition at 30 µM came to 64%.
The same measure for `NCCCCN1C2Cc3cc4c(cc3C1Cc1cc3c(cc12)OCO3)OCO4` [Example 51, 15-(4-aminobutyl)-5,6,12,13-tetrahydrocycloocta[1,2-f:5,6-f']bis[1,3]benzodioxol-5,12-imine]: -44%.
